Assays:
Puccinia recondita = test: In vivo test on Puccinia recondita f. sp. tritici (wheat brown rust); settings: 240 h, wheat plants (Scipion variety), grading 10 days after contamination, good (at least 70%) or total protection
Protocol: In vivo Test on Puccinia reconditef. Sp. tritici (Wheat Brown Rust)
(§1) The active ingredients tested are prepared by homogenisation in a mixture of acetone/tween/DMSO, then diluted with water to obtain the desired active material concentration. Wheat plants (Scipion variety) in starter cups, sown on 50/50 peat soil-pozzolana substrate and grown at 12° C., are treated at the 1-leaf stage (10 cm tall) by spraying with the active ingredient prepared as described above. Plants, used as controls, are treated with the mixture of acetone/tween/DMSO/water not containing the active material.
After 24 hours, the plants are contaminated by spraying the leaves with an aqueous suspension of Puccinia recondita spores (100,000 spores per ml). The spores are collected from a 10-day-old contaminated wheat and are suspended in water containing 2.5 ml/of tween 80 10%. The contaminated wheat plants are incubated for 24 hours at 20° C. and at 100% relative humidity, and then for 10 days at 20° C. and at 70% relative humidity. Grading is carried out 10 days after the contamination, in comparison with the control plants.

[1] = test system: Mycosphaerella graminicola; test: In vivo test on Mycosphaerella graminicola (wheat leaf spot); settings: Zymoseptoria tritici, wheat plants (Scipion variety), grading 21 to 28 days after contamination, good (at least 70%) or total protection, read-out: protection (% of efficacy)
Protocol: In vivo Test on Mycosphaerella graminicola (Wheat Leaf Spot)
The active ingredients tested are prepared by homogenisation in a mixture of acetone/tween/DMSO, and then diluted with water to obtain the desired active material concentration.
Wheat plants (Scipion variety), sown on a 50/50 peat soil-pozzolana substrate in starter cups and grown at 12° C., are treated at the 1-leaf stage (10 cm tall) by spraying with the active ingredient prepared as described above.
Plants, used as controls, are treated with the mixture of acetone/tween/DMSO/water not containing the active material.
After 24 hours, the plants are contaminated by spraying them with an aqueous suspension of Mycosphaerella graminicola spores (500 000 spores per ml). The spores are collected from a 7-day-old culture. The contaminated wheat plants are incubated for 72 hours at 18° C. and at 100% relative humidity, and then for 21 to 28 days at 90% relative humidity.
Grading (% of efficacy) is carried out 21 to 28 days after the contamination, in comparison with the control plants.

Podosphaera leucotricha = test: In vivo test on Podosphaera leucotricha (apple mildew), preventive spray; settings: 240 h, apple young plants, evaluated 10 days after inoculation, good (at least 70%) to total protection
Protocol: In Vivo Test on Podosphaera leucotncha (Apple Mildew) [table] To produce a suitable preparation of active compound, 1 part by weight of active compound is mixed with the stated amounts of solvent and emulsifier, and the concentrate is diluted with water to the desired concentration. Young plants are sprayed with the preparation of active compound at the stated rate of application. After the spray coating has dried on, the plants are inoculated with an aqueous spore suspension of the causal agent of apple mildew (Podosphaera leucobicha). The plants are then placed in a greenhouse at approximately 23° C. and a relative atmospheric humidity of approximately 70%. The test is evaluated 10 days after the inoculation. Under these conditions, good (at least 70%) to total protection is observed at a dose of 100 ppm with the following compounds: 104, 160, 176, 177, 180, 186, 187, 188, 192, 194, 196, 198, 203, 204, 205, 207, 209, 210, 211, 212, 213, 218 and 446.

[2] = logP by HPLC on reversed-phase column (C 18), EEC Directive 79/B31 Annex V.A8, methods A and B; format: physicochemical; settings: reversed-phase HPLC column (C 18), linear gradient 10% to 90% acetonitrile
Protocol: Calibration was carried out using unbranched alkan-2-ones (having 3 to 16 carbon atoms) with known logP values (determination of the logP values by the retention times using linear interpolation between two successive alkanones).

Pyrenophora teres = test: In vivo test on Pyrenophora teres (barley net blotch); settings: 288 h, barley plants (Express variety), grading 12 days after contamination, good (at least 70%) or total protection
Protocol: In Vivo Test on Pyrenophore teres (Barley Net Blotch)
as §1, with “material concentration. Barley plants (Express” for “material concentration. Wheat plants (Scipion”, “Barley plants (Express variety) in” for “Wheat plants (Scipion variety) in”, “sown on a 50/50 peat” for “sown on 50/50 peat”
After 24 hours, the plants are contaminated by spraying them with an aqueous suspension of Pyrenophora teres spores (12,000 spores per ml). The spores are collected from a 12-day-old culture. The contaminated barley plants are incubated for 24 hours at about 20° C. and at 100% relative humidity, and then for 12 days at 80% relative humidity.

[3] = HPLC reversed-phase C 18, method A: 43° C., 0.1% aqueous phosphoric acid, acetonitrile
[4] = HPLC reversed-phase C 18, method B: 40° C., 0.1% aqueous formic acid and acetonitrile
[5] = LogP method B: HPLC reversed-phase C 18, 40° C., 0.1% aqueous formic acid / acetonitrile

Structure (SMILES)	pest or weed control at 500 ppm (Puccinia recondita) [%]	pest or weed control at 500 ppm [1] [%]	pest or weed control at 500 ppm (Pyrenophora teres) [%]	other results
Cc1nc(C(=O)N(C2CC2)S(=O)(=O)c2ccc(Oc3ccccc3)cc2)c(C(F)(F)F)o1 [Compound 49]	≥ 70	≥ 70		
Cc1nn(C)c(F)c1C(=O)N(C1CC1)S(=O)(=O)c1ccc(C(F)(F)F)cc1 [Compound 188]				pest or weed control at 100 ppm (Podosphaera leucotricha): ≥ 70%; chromatographic logP [2, 3]: 3.1
COc1nn(C)cc1C(=O)N(C1CC1)S(=O)(=O)c1ccccc1O [Compound 211]				pest or weed control at 100 ppm (Podosphaera leucotricha): ≥ 70%; chromatographic logP [2, 3]: 1.94
Cc1nn(C)c(F)c1C(=O)N(C1CC1)S(=O)(=O)c1c(O)cccc1O [Compound 218]				pest or weed control at 100 ppm (Podosphaera leucotricha): ≥ 70%; chromatographic logP [2, 3]: 2.52
Cc1cccc(Oc2ccc(S(=O)(=O)N(C(=O)c3cn(C)nc3C(F)F)C3CC3)cc2)c1 [Compound 254]		≥ 70	≥ 70	
COc1nn(C)cc1C(=O)N(C1CC1)S(=O)(=O)c1ccc(-c2cccc3ccccc23)cc1 [Compound 258]		≥ 70	≥ 70	
CCCCOc1ccc(S(=O)(=O)N(C(=O)c2cn(C)nc2OC)C2CC2)cc1 [Compound 262]	≥ 70	≥ 70	≥ 70	
CCCCOc1ccc(S(=O)(=O)N(C(=O)c2c(C)nn(C)c2F)C2CC2)cc1 [Compound 263]		≥ 70	≥ 70	
CCOc1nn(C)cc1C(=O)N(C1CC1)S(=O)(=O)c1ccc(Oc2cccc(C(F)(F)F)c2)cc1 [Compound 264]	≥ 70	≥ 70		
COc1nn(C)cc1C(=O)N(C1CC1)S(=O)(=O)c1ccc(Sc2ccccc2)cc1 [Compound 266, N-cyclopropyl-3-methoxy-1-methyl-N-{[4-(phenylthio)phenyl]sulfonyl}-1H-pyrazole-4-carboxamide]	≥ 70		≥ 70	
COc1nn(C)cc1C(=O)N(C1CC1)S(=O)(=O)c1ccc(Oc2ccc(C(F)(F)F)cc2)cc1 [Compound 268]			≥ 70	
COc1nn(C)cc1C(=O)N(C1CC1)S(=O)(=O)c1ccc(Oc2ccc(Br)cc2)cc1 [Compound 269]	≥ 70		≥ 70	
Cn1nc(C(F)(F)F)c(C(=O)N(C2CC2)S(=O)(=O)c2cccc(O)c2O)c1F [Compound 357]			≥ 70	chromatographic logP [2, 4]: 3.3
CCc1nn(C)c(F)c1C(=O)N(C1CC1)S(=O)(=O)c1ccccc1Br [Compound 374]		≥ 70	≥ 70	chromatographic logP [2, 4]: 2.7
CCc1nn(C)c(F)c1C(=O)N(C1CC1)S(=O)(=O)c1ccc(C(F)(F)F)cc1Br [Compound 375]		≥ 70	≥ 70	chromatographic logP [2, 4]: 3.6
CCc1nn(C)c(F)c1C(=O)N(C1CC1)S(=O)(=O)c1ccc(C(C)(C)C)cc1 [Compound 381]			≥ 70	
CCc1nn(C)c(F)c1C(=O)N(C1CC1)S(=O)(=O)c1c(O)cc(C(F)(F)F)cc1O [Compound 387]		≥ 70	≥ 70	chromatographic logP [2, 4]: 3.8

Structure (SMILES)	pest or weed control at 500 ppm (Puccinia recondita) [%]	pest or weed control at 500 ppm [1] [%]	pest or weed control at 500 ppm (Pyrenophora teres) [%]	other results
COc1nn(C)cc1C(=O)N(C1CC1)S(=O)(=O)c1c(O)cc(C(F)(F)F)cc1O [Compound 396]			≥ 70	chromatographic logP [2, 4]: 3
Cn1nc(C(F)(F)F)c(C(=O)N(C2CC2)S(=O)(=O)c2c(O)sc(O)c2Br)c1F [Compound 436]			≥ 70	chromatographic logP [2, 5]: 3.9
Cc1nn(C)c(F)c1C(=O)N(C1CC1)S(=O)(=O)c1cccnc1O [Compound 446]				pest or weed control at 100 ppm (Podosphaera leucotricha): ≥ 70%; chromatographic logP ([2]; LogP method A: HPLC reversed-phase C 18, 43° C., 0.1% aqueous phosphoric acid / acetonitrile): 1.96
Cc1nn(C)c(F)c1C(=O)N(C1CC1)S(=O)(=O)c1ccc2c(c1)CCC(C)(C)O2 [Compound 456]	≥ 70	≥ 70	≥ 70	
COc1nn(C)cc1C(=O)N(C1CC1)S(=O)(=O)c1ccc2c(c1)CCC(C)(C)O2 [Compound 457]	≥ 70	≥ 70		
COc1nn(C)cc1C(=O)N(C1CC1)S(=O)(=O)c1ccc(Oc2ccc(Cl)cc2)cc1Cl [Compound 501]		≥ 70	≥ 70	
COc1nn(C)cc1C(=O)N(C1CC1)S(=O)(=O)c1ccc(Oc2cccc(N(C)C)c2)c(Cl)c1 [Compound 502]	≥ 70	≥ 70		
CCOc1nn(C)cc1C(=O)N(C1CC1)S(=O)(=O)c1ccc2c(c1)CCC(C)(C)O2 [Compound 524]	≥ 70	≥ 70		
CCOc1nn(C)cc1C(=O)N(C1CC1)S(=O)(=O)c1ccc(Oc2ccc(OC)c(OC)c2)c(O)c1 [Compound 528]	≥ 70	≥ 70		chromatographic logP [2, 5]: 3.5
CCOc1nn(C)cc1C(=O)N(C1CC1)S(=O)(=O)C1C=CC(OC2=CC=C(C(F)(F)F)CC2)=CC1O (stereo not shown) [Compound 538]		≥ 70		chromatographic logP [2, 5]: 4.1
CCOc1nn(C)cc1C(=O)N(C1CC1)S(=O)(=O)c1ccc(Oc2cccc(N(C)C)c2)c(O)c1 [Compound 539]	≥ 70	≥ 70		chromatographic logP [2, 5]: 4.1
CCOc1nn(C)cc1C(=O)N(C1CC1)S(=O)(=O)c1ccc(Oc2cccc(O)c2)c(O)c1 [Compound 546]	≥ 70		≥ 70	chromatographic logP [2, 5]: 4.3
CCOc1nn(C)cc1C(=O)N(C1CC1)S(=O)(=O)c1ccc(Oc2cccc(C(F)(F)F)c2F)c(O)c1 [Compound 547]	≥ 70	≥ 70		chromatographic logP [2, 5]: 4.3
CCOc1nn(C)cc1C(=O)N(C1CC1)S(=O)(=O)c1ccc(Oc2ccc(C(F)(F)F)cc2)c(Br)c1 [Compound 550]	≥ 70	≥ 70		chromatographic logP [2, 5]: 4.4
CCOc1nn(C)cc1C(=O)N(C1CC1)S(=O)(=O)c1ccc(Oc2ccc(Br)cc2)c(O)c1 [Compound 552]	≥ 70	≥ 70		chromatographic logP [2, 5]: 4.5
CCOc1nn(C)cc1C(=O)N(C1CC1)S(=O)(=O)c1ccc(Oc2ccc(O)c(C(F)(F)F)c2)c(Cl)c1 [Compound 556]	≥ 70	≥ 70		chromatographic logP [2, 5]: 4.8
CCOc1nn(C)cc1C(=O)N(C1CC1)S(=O)(=O)c1ccc(Cc2cc(O)cc(O)c2)c(O)c1 [Compound 559]	≥ 70	≥ 70		chromatographic logP [2, 5]: 5
